Like-named read-outs stand apart in the source and are kept apart here.
Assays:
nicotinic receptors = details: cited from earlier work
[1] = system: patients with Alzheimer's disease; details: cited from earlier work
[2] = system: patients with Alzheimer's disease; experiment: combined solanezumab phase III studies by standard of care subgroup; assay type: in vivo, human
Description: The notion that the Alzheimer brain, and the brain which is developing, but has not yet reached the stage of classical Alzheimer's disease with dementia is impaired by both excess Aβ in the region of plaques, and subnormal Aβ concentrations in the ISF bathing healthy tissue away from plaques, has important treatment implications. The clinical outcome measures used to evaluate interventions designed to alter the course of AD depend on the function of intact, healthy synapses. Anti-amyloid agents would not be expected to target plaques and spare healthy tissue, but rather to further decrease ISF Aβ, which is already reduced to about half of normal in patients with AD or classical MCI. […] (J Alz Dis 2013; 33, S111-S120) 3D6, the […] of bapineuzemab, impaired neuronal viability, as have large doses of γ- and β-secretase inhibitors. […] The combined solanezumab phase III studies have been analyzed for solanezumab's performance in patients with and without cholinesterase inhibitor and memantine treatments (called standard of care—SOC). […] ChEls might improve the function of the normal cells, allowing the antibody to show a net benefit because of its binding of Aβ where it is toxic.

CSF Aβ42 = details: single-dose study, dose-dependent; cited from earlier work
mild to moderate AD = details: cited from earlier work; for reduction in loss on the ADAS-cog: mild patients
[3] = system: serum tumor necrosis factor (TNF); details: cited from earlier work
APdE9 mice = details: cited from earlier work; for insoluble Aβ in mouse brains: 2 months
[4] = system: Mice with lesions of the nucleus basalis magnocellularis (nBm); details: cited from earlier work
CSF Aβ = details: in vivo; cited from earlier work
[5] = system: mild-to-moderate AD patients; experiment: two-year randomized trial of galantamine and placebo; assay type: in vivo, human; details: 24 months
β-secretase = details: 300 nM; cited from earlier work
[6] = system: mice transgenic for an anti-NGF (nerve growth factor) antibody; details: 3.5 mg/kg/day, cited from earlier work
[7] = system: Primary rat cultured cortical neurons; details: cited from earlier work
[8] = system: mice transgenic for a single, different Swedish APP mutation; details: ten days at 2 mg/kg/day; cited from earlier work
neuroblastoma cells = details: 300 nM; cited from earlier work
Aβ1-40 = Aβ1-40 (Homo sapiens, UniProt P05067); details: 500 nM; 50 μM Aβ1-40; cited from earlier work
[9] = human patients; cited from earlier work
MCI patients = details: cited from earlier work
α7 nicotinic receptors = biological target: T1, α7 nicotinic receptors (Rattus norvegicus, UniProt Q05941); details: 1 μM; 1.5 mM choline; cited from earlier work
T1 construct: Primary cultured rat neurons can be depolarized by the application of 1.5 mM choline; endogenous in cells; host or cells: primary cultured rat neurons

[10] = system: adrenal chromaffin and human neuroblastoma cells; details: 100 to 300 nM; Aβ1-40 10 μM; cited from earlier work
[11] = system: mild-to-moderate AD patients; details: cited from earlier work

T1 sequence (Q05941 23-502): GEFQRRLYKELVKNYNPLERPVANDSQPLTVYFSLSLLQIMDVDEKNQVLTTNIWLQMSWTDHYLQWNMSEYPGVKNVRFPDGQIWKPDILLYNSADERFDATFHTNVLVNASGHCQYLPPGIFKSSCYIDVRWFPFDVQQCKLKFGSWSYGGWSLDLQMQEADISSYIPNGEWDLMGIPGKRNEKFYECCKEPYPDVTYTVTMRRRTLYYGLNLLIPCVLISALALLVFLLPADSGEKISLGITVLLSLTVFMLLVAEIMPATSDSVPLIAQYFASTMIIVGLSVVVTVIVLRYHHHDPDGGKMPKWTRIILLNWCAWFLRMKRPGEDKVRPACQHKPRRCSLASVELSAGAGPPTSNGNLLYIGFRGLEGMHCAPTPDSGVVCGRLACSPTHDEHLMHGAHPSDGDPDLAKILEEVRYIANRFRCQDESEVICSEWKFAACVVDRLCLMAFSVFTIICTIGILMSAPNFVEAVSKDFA
Chain of Aβ1-40 (P05067 672-711 limits assumed): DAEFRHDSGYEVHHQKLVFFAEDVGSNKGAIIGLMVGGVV

CC12CC3CC(C)(C1)CC(N)(C3)C2 [Memantine]
blockade of nicotinic receptors (nicotinic receptors): potent blocker of nicotinic receptors

Solanezumab: antibody directed at the central portion of Aβ
LS Mean Change (SE) from Baseline to Week 80 in ADAS-Cog14 Scores ([1]; AChEI + Memantine): 9.8 (0.8) | LS Mean Change (SE) from Baseline to Week 80 in ADAS-Cog14 Scores ([1]; AChEI only): 6.8 (0.5) | LS Mean Change (SE) from Baseline to Week 80 in ADAS-Cog14 Scores ([1]; Memantine only): 11.2 (1.9) | LS Mean Change (SE) from Baseline to Week 80 in ADAS-Cog14 Scores ([1]; No SOC): 6.5 (1.3) | benefit on the ADAS-cog versus placebo ([2]; cholinesterase inhibitors, without memantine): 2.1 points | excess cognitive deterioration on the ADAS-cog versus placebo ([2]; patients not receiving cholinesterase inhibitors): 3.6 points | excess cognitive deterioration on the ADAS-cog versus placebo ([2]; patients on memantine only): 4.1 points | rise in CSF Aβ42 (CSF Aβ42): up to 35% | reduction of functional decline (ADCS-ADL) (mild to moderate AD; Expedition II): 19% | reduction in loss on the ADAS-cog (mild to moderate AD; Expedition I): 42% | reduction in loss on the ADAS-cog (mild to moderate AD; Expedition II): 20% | decrease of activities of daily living loss (mild to moderate AD; mild subgroups combined): 17% | slowing of cognitive loss (mild to moderate AD; mild subgroups combined): 34%

COc1ccc2c3c1O[C@H]1C[C@@H](O)C=C[C@@]31CCN(C)C2 [galantamine, (4aS,6R,8aS)-5,6,9,10,11,12-hexahydro-3-methoxy-11-methyl-4aH-[1]benzofuro[3a,3,2-ef][2]benzazepin-6-ol]
serum tumor necrosis factor (TNF) ([3]; 1 mg/kg, administered prior to endotoxin): significantly reduces serum tumor necrosis factor (TNF) | dose at which survival is improved significantly ([3]; endotoxin): 4 mg/kg | insoluble Aβ in mouse brains (APdE9 mice; 1 mg/kg/day): significantly reduced insoluble (fibrillar) Aβ1-40 | insoluble Aβ in mouse brains (APdE9 mice; 5 mg/kg/day): reduced both Aβ1-40 and Aβ1-42 | soluble Aβ species (APdE9 mice; 1 or 5 mg/kg/day): Neither dose significantly affected soluble Aβ species | additional time remaining in the lighted compartment versus saline ([4]; given during training, optimal performance): about 125 seconds | best dose for memory enhancement ([4]; passive avoidance): 3 mg/kg | effect on CSF Aβ (CSF Aβ): does not lower CSF Aβ | Disability Assessment in Dementia percent difference versus placebo [5]: 24% | MMSE percent difference versus placebo [5]: 34% | reduction of MMSE deterioration versus placebo ([5]; patients receiving memantine removed): 48% | activity of β-secretase (β-secretase): decreased | intracellular Aβ deposits ([6]; after 15 days): decreased intracellular Aβ deposits | ChAT activity [6]: restored ChAT activity | protection of neurons against Aβ plus glutamate ([7]; 0.1 μM): intermediate effect which is not statistically significant | protection of neurons against Aβ plus glutamate ([7]; 1.0 μM): protects neurons against Aβ plus glutamate | insoluble or soluble Aβ species [8]: did not reduce insoluble or soluble Aβ species | synaptophysin levels [8]: significantly raise synaptophysin levels | release of Aβ1-40 and Aβ1-42 (neuroblastoma cells): decreased | aggregation of Aβ1-40 (Aβ1-40): reduce aggregation | plasma half-life [9]: about 7 hours | deaths (MCI patients; 24-month study period, all patients entered): 34 | reduction of global atrophy (serial MRIs) versus placebo (MCI patients; subpopulation of two-year MCI study): 33% | deaths (MCI patients; within 30 days of stopping galantamine): 14 | enhancement of the depolarization caused by choline (α7 nicotinic receptors): 20.6±4.2% | Aβ1-40-induced apoptosis [10]: reduced Aβ1-40-induced apoptosis | MMSE change ([11]; 6 months): 0.15 | MMSE difference versus placebo ([11]; 6 months): 0.43 | Disability Assessment in Dementia change ([11]; 12 months): −4.55 | Disability Assessment in Dementia difference versus placebo ([11]; 12 months): 1.95 | MMSE deterioration ([11]; 24 months, patients receiving memantine removed): 1.12 points | Disability Assessment in Dementia change ([11]; 24 months): −8.16 | Disability Assessment in Dementia difference versus placebo ([11]; 24 months): 2.65 | MMSE change ([11]; 24 months): −1.41 | MMSE difference versus placebo ([11]; 24 months): 0.73 | mortality less than in placebo patients ([11]; in vivo): 42%

From patent US11219627B2, “Clearance of amyloid beta” (priority 2014, dated 2022)
